The test system of assay [1] is HIF-1α target genes (PGK-1, Glut1, PDK1 and Vegfa). The assay can be described thus: qPCR of HIF-1α target genes in gastrocnemius of treated mice. The class given is in vivo. The settings on record: 3- and 24-month-old mice, NMN 500 mg/kg IP one week. The method, then: C57BL/6J mice of 3, 6, 22, 24, or 30 months of age were obtained from the National Institutes of Aging mouse aging colony. Mice were acclimated for at least one-week prior to sacrifice. 3, and 24-month-old mice were given interperitoneal (IP) injections of 500 mg NMN/kg body weight per day or the equivalent volume of PBS for 7 consecutive days at 5:00 pm and 7:00 am on day 8 and sacrificed 4 hr after last injection. All animal studies followed the guidelines of and were approved by the Harvard Institutional Animal Care and Use Committee
(§1) RNA from skeletal muscle tissue and C2C12 cells were extracted with RNeasy mini kit (Qiagen) according to the instructions and quantified using the NanoDrop 1000 spectrophotometer (Thermo Scientific). cDNA was synthesized with the iSCRIP cDNA synthesis kit (BioRad) using 600 ng of RNA. Quantitative RT-PCR reactions were performed using 1 μM of primers and LightCycler® 480 SYBR Green Master (Roche) on an LightCycler® 480 detection system (Roche). Calculations were performed by a comparative method (2-ΔCT) using 18S as an internal control. […]
RNA from skeletal muscle and aorta were extracted with RNeasy mini kit (Qiagen) according to the instructions and quantified using the NanoDrop 1000 spectrophotometer (Thermo Scientific). cDNA was synthesized with the iSCRIP cDNA synthesis kit (BioRad) using 600 ng of RNA. […]
Background: In qPCR the cycle at which signal appears reflects the starting amount.

Assay [2] has as its system inflammatory markers (TNF-α, IL-6 and IL-18). The assay can be described thus: qPCR of inflammatory markers in gastrocnemius of treated mice. Format: in vivo. The settings on record: old (22-month) mice; NMN one week; skeletal muscle.
From the text: (§2) C57BL/6J mice of 6, 22, or 30 months of age were obtained from the National Institutes of Aging mouse aging colony. Additionally 22 months old caloric restricted mice were also obtained from the National Institutes of Aging mouse aging colony. EGLN1 KO, SIRT1 KO and SIRT1 OE mice were generated as previously described (Minamishima et al., 2008; Price et al., 2012). Mice were acclimated for at least one-week prior to sacrifice. 3, 6, 22 and 24-month-old mice were given interperitoneal (IP) injections of 500 mg NMN/kg body weight per day or the equivalent volume of PBS for 7 consecutive days at 5:00 pm and 7:00 am on day 8 and sacrificed 4 hr after last injection.
as §1

Assay [3] relates to Atrogin-1 and MuRF1. The assay can be described thus: Immunoblot for muscle wasting markers in gastrocnemius of treated mice. Format: in vivo. The settings on record: old (22-month) mice; NMN one week; skeletal muscle.
From the text: as §2
Protein extracts from tissue or C2C12 cells were obtained by lysis in ice-cold lysis buffer (150 mM NaCl, 10 mM Tris HCl (pH 7.4), 1 mM EDTA, 1 mM EGTA, 1% Triton X-100, 0.5% NP-40) supplemented with a cocktail of protease and phosphatase inhibitors (Roche). Protein content was determined by the Bradford protein assay (Biorad), and 50 μg proteins were run on SDS-PAGE under reducing conditions. The separated proteins were then electrophoretically transferred to a polyvinylidene difluoride membrane (Perkin-Elmer). […] The immunostaining was detected using horseradish peroxidase-conjugated anti-rabbit or anti-mouse immunoglobulin for 1 h at room temperature.
(In western blotting, separated proteins are transferred to a membrane and probed.)

For assay [4], the system named is VHL. The assay can be described thus: Immunoblot for VHL in gastrocnemius of treated mice. The class given is in vivo. The conditions noted are these: 6- and 22-month-old mice, NMN one week.
From the text: as §2
C57BL/6J mice of 3, 6, 22, or 24 months of age were obtained from the National Institutes of Aging mouse aging colony. […]
Protein extracts from tissue were obtained by lysis in ice-cold lysis buffer (150 mM NaCl, 10 mM Tris HCl (pH 7.4), 1 mM EDTA, 1 mM EGTA, 1% Triton X-100, 0.5% NP-40) supplemented with a cocktail of protease and phosphatase inhibitors (Roche). Protein content was determined by the Bradford protein assay (Biorad), and 50 μg proteins were run on SDS-PAGE under reducing conditions. […] The immunostaining was detected using horseradish peroxidase-conjugated anti-rabbit or anti-mouse immunoglobulin for 1 h at room temperature.

Assay [5] relates to TFAM promoter. The assay can be described thus: TFAM promoter activity by luciferase assay in primary WT myoblasts. The conditions noted are these: DMOG vs DMSO. The class given is cell-based, mouse. The method, then: TFAM promoter, VHL promoter, HRE and c-Myc activity were determined using a luciferase-based system. Luciferase activity was measured using the Dual-Luciferase Reporter Assay System (Promega) with Renilla as the reference.
TFAM promoter activity was evaluated using a TFAM promotes-luc plasmid. A fragment of the mouse Tfam promoter (1.4 kb upstream of the coding sequence) was cloned into a pGL4.15 vector (Promega). Luciferase activity was measured using the Dual-Luciferase Reporter Assay System (Promega) with Renilla as the reference 48 h after transfection.

Assay [6] has as its system C2C12 myoblasts. The assay can be described thus: mtDNA content and ETC gene expression in C2C12 myoblasts. The class given is cell-based, mouse. The settings on record: C2C12 myoblasts treated with DMOG, 16 h. The method, then:
C2C12 cell line (ATCC) was cultured in low glucose Dulbecco's modified eagle medium (DMEM) (Invitrogen) supplemented with 10% FBS (Invitrogen) and a mix of antibiotic and antimycotic (Invitrogen). To inhibit SIRT1, cells were treated the vehicle (0.001% DMSO) or 10 μM EX-527 (Tocris) for 12 h. C2C12 myoblasts were infected with an empty or SIRT1 adenovirus as described before (Gerhart-Hines et al., 2007) and the media was replaced with fresh DMEM for additional 48 h, after that the cells were treated as described before. To test the effects of hypoxia and HIFα stabilization in genome asyncrony, C2C12 myoblasts were exposed to 1% oxygen for 16 h or treated with the vehicle (0.001% DMSO) or DMOG (Cayman) for the same period of time.
RNA from skeletal muscle tissue and C2C12 cells were extracted with RNeasy mini kit (Qiagen) according to the instructions and quantified using the NanoDrop 1000 spectrophotometer (Thermo Scientific). cDNA was synthesized with the iSCRIP cDNA synthesis kit (BioRad) using 600 ng of RNA. Quantitative RT-PCR reactions were performed using 1 μM of primers and LightCycler® 480 SYBR Green Master (Roche) on an LightCycler® 480 detection system (Roche). Calculations were performed by a comparative method (2-ΔCT) using 18S as an internal control. For mtDNA analysis, total DNA was extracted with DNeasy blood and tissue kit (Qiagen). mtDNA was amplified using primers specific for the mitochondrial cytochrome c oxidase subunit 2 (COX2) gene and normalized to genomic DNA by amplification of the ribosomal protein s18 (rps18) nuclear gene. Primers were designed using the IDT software (IDT) and the primer sequences can be found in Table 1.

On to `NC(=O)c1ccc[n+]([C@@H]2O[C@H](COP(=O)([O-])O)[C@@H](O)[C@H]2O)c1` [NMN, nicotinamide mononucleotide], for which, in assay [1], the “expression of HIF-1α target genes” value is “suppressed the expression of HIF-1α target genes”. Further, the “expression of inflammation markers” value in assay [2] is on record as “completely reversed these markers”. Also, the “muscle wasting markers Atrogin-1 and MuRF1” value in assay [3] is given as “completely reversed these markers”. In addition, in assay [4], the VHL protein entry is reported as “reversed the age-induced decline in VHL”.

Consider `COC(=O)CNC(=O)C(=O)OC` [DMOG, dimethyloxaloylglycine], for which, in assay [5], the “full length TFAM promoter activity” value is listed as “reduces the full length TFAM promoter activity”. For the same molecule, in assay [5] (c-Myc binding site absent), the “TFAM promoter activity with c-Myc consensus sequence mutation” value was “does not have an additive effect”. Besides, in assay [6], the “expression of mitochondrially-encoded ETC genes” value is recorded as “specific decline”, the “expression of nuclear-encoded ETC components” value was “not the nuclear-encoded components” and the mtDNA content entry is listed as “specific decline in mtDNA content”.
